The source of these data is ChEMBL document CHEMBL4418484, “Inhibitors of nkx2.5 for vascular remodelling” (2015).

Active and inactive are the calls of the source. The rule behind the calls is not given here.

A short description of series [1]: Effect on Nkx2-5 cytosolic expression in human pulmonary smooth muscle cells. The format is ADME. The note with it: cytosol.
The species named for series [2] is Homo sapiens. Nature of the series: Inhibition of casein kinase-2 in human pulmonary smooth muscle cells assessed as reduction in Nkx2-5 nuclear translocation.
Series [3] deals with Mus musculus. Nature of the series: Effect on systemic pressure in […] mouse hypoxia/Sugen pre-clinical model of pulmonary hypertension at 80 mg/kg dosed daily for 20 days starting 8 days post experimental initiation. The class given is functional, organism-based.
The species entered for series [4] is Homo sapiens. Nature of the series: Inhibition of casein kinase-2/Nkx2-5 in human pulmonary smooth muscle cells assessed as down-regulation of COL1 protein expression at 1 nM by Western blot analysis. In general terms: Immunoblotting shows a protein as a band on a membrane.
The species entered for series [5] is Homo sapiens. Nature of the series: Inhibition of casein kinase-2/Nkx2-5 in human pulmonary smooth muscle cells assessed as up-regulation of MYH11 protein expression at 1 nM by Western blot analysis.
The test system of series [6] is Mus musculus. Nature of the series: Inhibition of right ventricular systolic pressure increase in […] mouse hypoxia/Sugen pre-clinical model of pulmonary hypertension at 80 mg/kg dosed daily for 20 days starting immediately post experimental initiation. The format is functional, organism-based.
Series [7] is filed under the species Homo sapiens. Nature of the series: Inhibition of de-differentiation of human pulmonary smooth muscle cells assessed as reduction in contractile to synthetic forms change. The format is functional.
Series [8] is filed under the species Homo sapiens. Nature of the series: Inhibition of casein kinase-2/Nkx2-5 in human pulmonary smooth muscle cells assessed as up-regulation of MYH11 protein expression at 10 nM by Western blot analysis.
Series [9] is filed under the species Homo sapiens. Nature of the series: Inhibition of casein kinase-2/Nkx2-5 in human pulmonary smooth muscle cells assessed as down-regulation of COL1 protein expression at 10 nM by Western blot analysis.
The species named for series [10] is Homo sapiens. Nature of the series: Inhibition of cell proliferation of human pulmonary smooth muscle cells incubated up to 120 hrs. The class given is functional.
The species named for series [11] is Homo sapiens. Nature of the series: Inhibition of casein kinase-2/Nkx2-5 in human pulmonary smooth muscle cells assessed as down-regulation of CCN2 protein expression at 10 nM by Western blot analysis.
The subject of series [12] is Mus musculus. Nature of the series: Inhibition of right ventricular systolic pressure increase in […] mouse hypoxia/Sugen pre-clinical model of pulmonary hypertension at 80 mg/kg dosed daily for 20 days starting 8 days post experimental initiation. The class given is functional, organism-based.
The species entered for series [13] is Homo sapiens. Nature of the series: Inhibition of casein kinase-2/Nkx2-5 in human pulmonary smooth muscle cells assessed as up-regulation of ACTA2 protein expression at 10 nM by Western blot analysis.
The species named for series [14] is Homo sapiens. Nature of the series: Inhibition of cell migration of human pulmonary smooth muscle cells by standard scratch assay. The format is functional.
The species named for series [15] is Homo sapiens. Nature of the series: Inhibition of casein kinase-2/Nkx2-5 in human pulmonary smooth muscle cells assessed as down-regulation of CCN2 protein expression at 1 nM by Western blot analysis.
For series [16], the species on record is Homo sapiens. Nature of the series: Inhibition of casein kinase-2/Nkx2-5 in human pulmonary smooth muscle cells assessed as up-regulation of ACTA2 protein expression at 1 nM by Western blot analysis.
For series [17], the system named is Mus musculus. Nature of the series: Effect on systemic pressure in […] mouse hypoxia/Sugen pre-clinical model of pulmonary hypertension at 80 mg/kg dosed daily for 20 days starting immediately post experimental initiation. The format is ADME, organism-based. The note with it: in vivo, 480 h.

Take `COc1cc(Nc2ncc3ccn(-c4cccc(CCC#N)c4)c3n2)cc(OC)c1OC`: in series [1], the Activity entry is “Non-Toxic”. Also, the inhibition entry in the series listed under Homo sapiens [2] is “Active”.
With `O=C(O)c1ccc2c(c1)nc(Nc1cccc(Cl)c1)c1ccncc12` [SILMITASERTIB], the outcome in the series on Mus musculus [3] was inactive. The inhibition result in the series listed under Homo sapiens [4], in the series filed under Homo sapiens [5], in the series on Mus musculus [6], in the series filed under Homo sapiens [8], in the series listed under Homo sapiens [9] and in the series listed under Homo sapiens [11] was “Active” throughout. Also, the inhibition entry in the series on Mus musculus [12], in the series filed under Homo sapiens [13], in the series filed under Homo sapiens [15] and in the series listed under Homo sapiens [16] was “Active” throughout. In addition, the inhibition entry in the series listed under Homo sapiens [7], in the series filed under Homo sapiens [10] and in the series filed under Homo sapiens [14] was “Dose-dependent effect” each time. In the series on Mus musculus [17], the Activity entry is on record as “Non-Toxic”.
